According to a melting point compilation (Tetko et al.; mined from patent text by program, amines drawn as free bases though some values may be those of a salt):

Row | Compound | melting point [°C]
1 | CCCC(=O)OC1CC(n2cc(CC)c(=O)[nH]c2=O)OC1CNC(=O)Cc1c(Cl)cccc1Cl (stereo unspecified) | 130 to 132
2 | COCCNC(=O)c1nc2cc(NC(=O)c3c(C(=O)N4CCC4)cnn3C)ccn2n1 | 159 to 161
3 | CC(C)(C)c1cc(-c2nc3n(c2CN2CCOCC2)CCS3)cc(C(C)(C)C)c1O | 231 to 233
4 | CN(c1cccc2cc(C3=NCC(CC(=O)N4CCC[C@H]4C(=O)O)S3)[nH]c12)S(=O)(=O)c1ccccc1C(F)(F)F (stereo partly specified) | 132 to 135
5 | Cc1nc(NC(=O)c2cnn3c(C(F)F)cc(-c4ccc(C(F)(F)F)cc4)nc23)sc1S(=O)(=O)NC(C)(CO)CO | 248
6 | CCS(=O)(=O)c1cc2c(c(C(=O)NCC3CCCN3C)c1)OCCO2 (stereo unspecified) | 140 to 141
7 | NCCCNc1cccc2[nH]ncc12 | 154 to 163
8 | O=[N+]([O-])c1cccc(S(=O)(=O)Nc2nncs2)c1 | 189 to 192
9 | CN1CCN(c2cc(Cl)cc3c2c(=O)n(Cc2cccc([N+](=O)[O-])c2)c(=O)n3Cc2ccccc2)CC1 | 200 to 205
10 | CC1(C(=O)N2CCN(S(=O)(=O)c3ccc(Br)cc3)CC2)CCN(c2ccncn2)CC1 | 217 to 218
11 | CC1CC2C3CC(Cl)C4=CC(=O)C=CC4(C)C3(Cl)C(O)CC2(C)C1C(=O)COC(=O)C(C)(C)C (stereo unspecified) | 238
12 | CC1(C)OC(=C(C#N)C#N)C(C#N)=C1c1ccc(Br)cc1 | 235
13 | NC(=O)c1ccc2c(c1)C(=C(Cl)Cl)OC(=C(Cl)Cl)O2 | 217 to 218
14 | CC(C)(C)OC(=O)NNC(=O)Cc1nc2cc(F)c(N3CCN(C(=O)OC(C)(C)C)CC3)cc2n1C1CC1 | 202 to 203
15 | Cc1cccc(NC(=O)NCC(=O)N(CC(=O)NCC2CC2)c2ccccc2)c1 | 168
16 | CN1Cc2c(Cl)ncn2-c2ccccc2C1=O | 193 to 194
17 | c1ccc(CCn2cnc3cnc4ccccc4c32)cc1 | 105 to 108
18 | CCCCN1CCN(c2cccc3c2C[C@H](NC(C)=O)CC3)CC1 | 118 to 120
19 | CCCCCCCCCCCCN(c1nc(Cl)nc(Cl)n1)c1nc(Cl)nc(Cl)n1 | 50 to 53
20 | CC(=O)n1ccn(C(C)=O)c1=O | 106
21 | Oc1ccc(C2(c3ccc(O)cc3)CCC(c3ccccc3)CC2)cc1 | 262 to 263
22 | CCOC(=O)CNc1nc(C)c(C(=O)OCC)c(NC(C)CC)c1[N+](=O)[O-] (stereo unspecified) | 43 to 45

Row | Compound | melting point [°C]
23 | O=C(c1sc(-c2nc3ccccc3[nH]2)nc1-c1ccco1)C1CCOCC1 | 250 to 251
24 | CCC(=CC(CNC(C)=O)=NO)C(C)[N+](=O)[O-] (stereo unspecified) | 124 to 125
25 | CN1CCN(CC(=O)Nc2cccc3c2C(=O)c2c-3n[nH]c2-c2ccc(N3CCOCC3)cc2)CC1 | 258
26 | Nc1ccn(C2CC(O)C(CO)O2)c(=O)n1 (stereo unspecified) | 208 to 210
27 | CCN(CC)C(=O)C(C)N1C(=O)C(NC(=O)OCc2ccccc2)N=C(c2ccccc2)c2ccccc21 (stereo unspecified) | 170 to 171
28 | O=C1OCc2ncccc21 | 113 to 118
29 | O=C(CCCC1(c2ccccc2)CC(O)=C(SCc2ccccc2)C(=O)O1)NCc1ccccc1 (stereo unspecified) | 48 to 52
30 | CCCCCCCCCCCCCCCCCCCCCC(=O)Nc1ccc(NC(=O)NS(=O)(=O)c2ccc3ccccc3c2)cc1 | 179
31 | NC(=O)N1C(=O)C(=C(OC(=O)c2cccc(C(=O)O)c2)c2cccs2)c2cc(F)c(Cl)cc21 | 244 to 248
32 | O=C(CCl)Nc1cccc(NC(=O)Nc2ccc(N(CCCl)CCCl)cc2)c1 | 232 to 233
33 | Cc1cc2cn[nH]c2c(C(=O)NC(C)C)c1NC(=O)c1cc(C(F)F)nn1-c1ncccc1Cl | 250 to 253
34 | CCOC(=O)c1cc(S(=O)(=O)N2CCN(CC)CC2)cnc1OCC | 66 to 68
35 | CC(C)(C)OC(=O)N[C@@H](CCCCNC[C@H](O)CCl)C(=O)OC(C)(C)C | 87 to 88
36 | CC1(C)C(C=C(Br)Br)C1C(=O)O (stereo unspecified) | 116 to 117
37 | COC(=O)C=CC(=O)NC(N)=O | 112 to 114
38 | NS(=O)(=O)c1cccc(-c2cccc(-c3nc(-c4ccc(F)cc4)cc(C(F)(F)F)n3)c2)c1 | 208
39 | CCn1ncc2c(NCC3CCCCC3)c3cc(OCCN4CCOCC4)ccc3nc21 | 176 to 178
40 | NC(=O)c1nc(-c2cccc(O)c2)nc2c1[nH]c(=O)n2[C@@H]1CCOC1 | 353 to 355
41 | CC(=O)NC[C@H]1CN(c2ccc(N3CCC(n4cc(C=O)nn4)CC3)c(F)c2)C(=O)O1 | 168 to 170
42 | COC(=O)c1cc(C(=O)NCC(=O)O)cc([N+](=O)[O-])c1 | 142 to 143
43 | O=S(=O)(CC(F)(F)F)c1nc2cc(Cl)ccc2[nH]1 | 161 to 164
44 | COC1(C)OC(=O)c2c(O)cccc21 (stereo unspecified) | 101 to 104

The remaining lines, values ahead:

Row | melting point [°C] | Compound
45 | 162 to 170 | O=C(O)c1cc(Oc2c(Br)cc(Br)cc2Br)ccc1[N+](=O)[O-]
46 | 65 to 66.5 | CC(=O)c1c(C)oc(-c2ccncc2)c1C
47 | 142 to 144 | Nc1ccccc1C(=O)Nc1ccc(Br)c(C(F)(F)F)c1
48 | 153 to 154 | Cc1cccnc1C(O)c1ccc(N)cc1 (stereo unspecified)
49 | 92 to 94 | CN(C(C)(C)C)S(=O)(=O)c1cccnc1SCc1ccccc1
50 | 73 to 74 | CCOC(=O)c1cnoc1-c1ccc2c(c1)OCO2
51 | 197 to 202 | O=C1NC(=O)C(Cc2ccc(OCc3cn4ccccc4n3)cc2)S1 (stereo unspecified)
52 | 53 to 56 | NC(=O)c1cccc(OCCCCC/C=C\c2ccc(Cl)o2)c1
53 | 265 to 268 | N#CN=C(N)c1cc2c(Oc3ccc(Cl)cc3)cncc2s1
54 | 203 to 206 | CCc1cc(NC(=O)c2ccc(OC)c(OC)c2)ccc1C(C)(C)CNC(C)=O
55 | 94 to 96 | O=C1c2ccccc2CCc2cc(Br)ccc21
56 | 99 to 100 | COC(=O)CCC(=O)c1ccc(-c2ccc(Cl)cc2)o1
57 | 148 to 150 | CC(C)(C)c1cc(CCc2ccccc2NC(=O)N2CCc3ccccc3C2)cc(C(C)(C)C)c1O
58 | 116 to 120 | CN1C(=O)CCC2(C)c3ccc(-c4cccc(F)c4)cc3CCC12 (single isomer, unassigned; (+))
59 | 253 | Cc1cc(CN2CCN(c3ccc(C(=O)NC4CC4)cc3F)CC2)cc2c1OC(C)C(=O)N2 (stereo unspecified)
60 | 117 to 119 | O=C(NOCCO)c1ccc(F)cc1Nc1ccc(I)cc1F
61 | > 250 | Cc1cc(C(=O)O)ccc1C(N)C(=O)O (stereo unspecified)
62 | 98 to 114 | Cc1nc(C)c(C(=O)Nc2ccc(-n3nc(C4CC4)cc3C3CC3)cc2)s1
63 | 127 to 129 | CCOCc1nc2c(N(Cc3ccccc3)Cc3ccccc3)nc(Cl)c(C)c2n1N
64 | 109 to 110 | COCCOCCOc1cccc2c1C1(COc3cc4c(cc31)OCCO4)C(=O)N2C (stereo unspecified)
65 | 154 to 156 | COCCc1c[nH]c(-c2ccc(OCc3ccccc3)cc2)n1
66 | 198 to 199 | Nc1nc(NCC=Cc2ccccc2)nc(-c2cc(Cl)ccc2Cl)n1
67 | 77 to 80 | CCCCCCN(Cc1ccc(N(C)C)cc1)c1c(N[C@@H](Cc2ccccc2)C(=O)O)c(=O)c1=O
68 | 232 to 236 | CCN(Cc1cc(Br)ccc1OCc1ccccc1)c1ncc(C(=O)NCc2nnn[nH]2)s1
69 | 176 to 178 | O=C(Nc1ccc(OCc2ccncc2)c2ccccc12)c1cc(F)cc(OC2CCCCC2)c1
70 | > 250 | CCc1nn(-c2ccc(C(=N)N)cc2)c(=O)n1-c1ccc(CCC(=O)OC(C)C)cc1

Row | melting point [°C] | Compound
71 | 250 | COC(=O)Nc1nc2cc(C(c3ccc(F)cc3)n3cncn3)ccc2[nH]1 (stereo unspecified)
72 | 194 to 196 | Cc1ccc(-c2nc(=O)c3ccccc3s2)n1C
73 | 252 to 253 | O=C(O)c1ccc(-c2c(-c3ccccc3)[nH]c3ccccc23)cc1
74 | 295 to 297 | O=C(NCc1ccc(Cl)cc1)c1cnc2c(Cl)c(Cl)ccc2c1O
75 | 277 to 280 | CC(C)N1CCC(CNc2ccccc2C(=O)Nc2ccc(Cl)cn2)CC1
76 | 343 to 345 | COc1cc(OC)c(-c2ccc(O)c(C34CC5CC(CC(C5)C3)C4)c2)cc1C=C1SC(C2CCNC2)=NC1=O (stereo unspecified)
77 | 160 to 162 | O=Cc1cc(Br)c(O)c(OCc2ccccc2)c1
78 | 269 to 270 | CC(=O)Nc1ccc(C2=NNC(=O)C3CC23)cc1 (stereo unspecified)
79 | 146 to 147 | CC(C)(C)c1ccc(CCC(O)CCC2CCCCCC2)cc1NC(=O)CC1c2ccccc2Oc2ccccc21 (stereo unspecified)
80 | 134 to 136 | C=CCON(C)C(=O)c1nc(-c2ccc(Cl)c(OC)c2F)cc(N)c1Cl
81 | 160 | Cn1c(=O)cnn(-c2cc(Cl)c(C(C#N)c3ccc(Cl)cc3)c(Cl)c2)c1=O (stereo unspecified)
82 | 136 to 138 | CCCn1c(COCC)nc2c(N)nc3ccc(OCCCCCCNC(=O)C(C)C)cc3c21
83 | 87 to 90 | c1cc2c(c(-c3nc4ncccc4o3)c1)CCCC2
84 | 271 to 272 | O=c1[nH]c2ncc(-c3ccc(O)cc3)nc2n1CC1CCCOC1 (stereo unspecified)
85 | 51 to 52 | O=C(OCc1ccccc1)c1ccc(CCCOCCCCCCNCC(O)c2ccc(O)c(CO)c2)cc1 (stereo unspecified)
86 | 61.5 to 63 | CC(=O)c1ccc(C(C)ON2C(C)(C)CCCC2(C)C)cc1 (stereo unspecified)
87 | 205 | Nc1nccc(Oc2ccc3c(C(=O)O)cccc3c2)n1
88 | 258 | CC(C)(C)NOC(=O)c1n[nH]c2c(=O)[nH]c3cc(Cl)ccc3c(=O)c12
89 | 91 to 92 | COc1cc(C)c(N)c(C)c1Cc1ccc(C(C)C)cc1
90 | 290 | Cc1ccc2c(c1)C(=O)c1ccc(C#N)cc1S2(=O)=O
91 | 91 to 95 | CC(C)(C)OC(=O)CC[C@H](NC(=O)c1ccc(N)cc1F)C(=O)OC(C)(C)C
92 | 209 to 213 | COc1cc(OCc2ccccn2)ccc1/C=C/c1cc(/C=C/c2c[nH]c3ccc(F)cc23)n[nH]1
93 | 170 to 172 | Cc1ccccc1Sc1cncc2sc(C(N)=O)cc12
94 | 55 | Cc1ccccc1N=C(C#N)c1c(Cl)cccc1Cl
95 | 192 to 193 | CCCCCCC(NS(=O)(=O)c1ccc(Cl)cc1)C(=O)Nc1ccc(CC(=O)O)cc1 (racemic)
96 | 160 | CCOc1ccc2c(c1)n(C1CCCCC1)c(=O)n2S(=O)(=O)c1ccc(C(=O)NC2Cc3ccccc3C2)cc1OC
